Experimental findings from patent US20240317708A1, “INHIBITORS OF TRANSGLUTAMINASES” (ZEDIRA GMBH, priority 2021, published 2024) are described below.

As a reminder, the pIC50 is the IC50 on a negative log10 scale, so that one unit is a factor of ten. By Papp is commonly meant the rate of passage across a membrane or cell layer, normalised by area and donor concentration. In general, logD refers to the decadic logarithm of the distribution of all forms, ionised or not, between an organic phase and buffer at a given pH. A high value points to higher lipophilicity.

pIC50: −log10 of the molar value.

Data set [1] addresses T1, recombinant human transglutaminase 2 (Homo sapiens, UniProt P21980).
T1 construct: purchased Zedira T022
T1 sequence (P21980 1-687): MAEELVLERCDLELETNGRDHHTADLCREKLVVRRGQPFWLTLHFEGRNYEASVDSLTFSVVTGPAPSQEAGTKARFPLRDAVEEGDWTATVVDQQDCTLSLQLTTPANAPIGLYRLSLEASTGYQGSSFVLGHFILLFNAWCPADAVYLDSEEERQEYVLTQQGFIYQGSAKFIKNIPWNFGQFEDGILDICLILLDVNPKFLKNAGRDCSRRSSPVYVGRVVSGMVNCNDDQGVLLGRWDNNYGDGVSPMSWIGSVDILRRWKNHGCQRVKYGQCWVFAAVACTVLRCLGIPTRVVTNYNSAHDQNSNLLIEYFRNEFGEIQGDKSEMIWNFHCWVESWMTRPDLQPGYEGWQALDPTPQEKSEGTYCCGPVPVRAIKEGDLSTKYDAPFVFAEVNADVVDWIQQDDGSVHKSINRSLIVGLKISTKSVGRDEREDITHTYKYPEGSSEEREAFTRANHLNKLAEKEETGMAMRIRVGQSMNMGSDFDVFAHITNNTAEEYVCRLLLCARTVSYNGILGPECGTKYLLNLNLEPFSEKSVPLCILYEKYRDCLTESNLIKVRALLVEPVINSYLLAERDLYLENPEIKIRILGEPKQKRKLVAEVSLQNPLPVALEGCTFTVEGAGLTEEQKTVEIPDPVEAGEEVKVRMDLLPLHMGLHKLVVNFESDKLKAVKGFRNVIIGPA
Description: Transglutaminase assay (dansylcadaverine incorporation into dimethylcasein, DCC-assay). The data set is classed as biochemical. As to conditions: recombinant human TG2 10 nM, dansylcadaverine/dimethylcasein, 37° C. In short, it runs like this:
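IC50 derived from fluorescence slope between 20 and 30 min (λex 330 nm, λem 500 nm, 37 °C), expressed relative to a 2% DMSO control. Reaction: 10 nM recombinant human TG2, 4 μM dimethylcasein, 16.7 μM dansylcadaverine, 10 mM CaCl2 and glutathione, pH 8.0.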

Data set [2] is described as follows: Caco-2 permeability assay (CacoReady kit). The data set is classed as in vitro ADME. The conditions noted are these: human. In short, it runs like this: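 Compounds are tested on pre-formed Caco-2 barriers supplied as a ready-to-use kit, following the kit protocol, and the Papp value is derived to estimate intestinal absorption.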
(In general: Passage across Caco-2 layers is used to estimate intestinal permeability.)

Data set [3] is described as follows: Log D shake flask method (octanol / PBS pH 7.4, HPLC). The data set is classed as physicochemical. The conditions noted are these: octanol/phosphate-buffered saline (PBS); octanol / PBS pH 7.4, shake flask. The protocol:
In order to classify the inventive compounds according to their lipophilicity, Log D values (distribution coefficient) were determined by means of the well-established shake flask method, measuring the partition of a compound between an octanol and phosphate-buffered saline (PBS, pH 7.4) by HPLC.

Consider `COC(=O)/C=C/CC[C@H](NC(=O)c1cc(Cl)sc1Cl)C(=O)Nc1cccn(CC(=O)NC23CC4(C)CC(C)(CC(C)(C4)C2)C3)c1=O` [III-94, (S,E)-methyl 6-(2,5-dichlorothiophene-3-carboxamido)-7-(1-(2-(3,5,7-trimethyl-1-adamantylamino)-2-oxoethyl)-2-oxo-1,2-dihydropyridin-3-ylamino)-7-oxohept-2-enoate], for which the pIC50 in data set [1] is greater than 7.60. Further, the Papp in data set [2] lay in the range of 1 to 10 ×10⁻⁶ cm/s. For the same molecule, the log distribution coefficient (logD) in data set [3] was 3 to 5.
In the same order, the values of `COC(=O)/C=C/CC[C@H](NC(=O)c1sc(C(F)(F)F)nc1C)C(=O)Nc1cccn(CC(=O)NC23CC4(C)CC(C)(CC(C)(C4)C2)C3)c1=O` [III-95, (S,E)-methyl 7-(1-(2-(3,5,7-trimethyl-1-adamantylamino)-2-oxoethyl)-2-oxo-1,2-dihydropyridin-3-ylamino)-6-(4-methyl-2-(trifluoromethyl)thiazole-5-carboxamido)-7-oxohept-2-enoate] are greater than 7.60, 1 to 10 ×10⁻⁶ cm/s and 3 to 5.
For `COC(=O)/C=C/CC[C@H](NC(=O)c1cnnn1C)C(=O)Nc1cccn(CC(=O)N[C@@H]2C[C@H]3CC[C@@H]2C3)c1=O` [III-96, (S,E)-methyl 7-(1-(2-((1R,2R,4S)-bicyclo[2.2.1]heptan-2-ylamino)-2-oxoethyl)-2-oxo-1,2-dihydropyridin-3-ylamino)-6-(1-methyl-1H-1,2,3-triazole-5-carboxamido)-7-oxohept-2-enoate], in that order: greater than 7.60, 1 to 10 ×10⁻⁶ cm/s and less than 1.
On to `COC(=O)/C=C/CC[C@H](NC(=O)c1cc(Cl)sc1Cl)C(=O)Nc1cccn(CC(=O)N[C@@H]2C[C@H]3CC[C@@H]2C3)c1=O` [III-97, (S,E)-methyl 7-(1-(2-((1R,2R,4S)-bicyclo[2.2.1]heptan-2-ylamino)-2-oxoethyl)-2-oxo-1,2-dihydropyridin-3-ylamino)-6-(2,5-dichlorothiophene-3-carboxamido)-7-oxohept-2-enoate], for which the negative-log IC50 (pIC50) in data set [1] is greater than 7.60. Further, the apparent permeability (Papp) in data set [2] was in the range of 1 to 10 ×10⁻⁶ cm/s. The log distribution coefficient (logD) in data set [3] fell in the range of 3 to 5.
In the same order, the values of `COC(=O)/C=C/CC[C@H](NC(=O)c1sc(C(F)(F)F)nc1C)C(=O)Nc1cccn(CC(=O)N[C@@H]2C[C@H]3CC[C@@H]2C3)c1=O` [III-98, (S,E)-methyl 7-(1-(2-((1R,2R,4S)-bicyclo[2.2.1]heptan-2-ylamino)-2-oxoethyl)-2-oxo-1,2-dihydropyridin-3-ylamino)-6-(4-methyl-2-(trifluoromethyl)thiazole-5-carboxamido)-7-oxohept-2-enoate] are greater than 7.60, 1 to 10 ×10⁻⁶ cm/s and 1 to 3.
For `CCOC(=O)/C=C/CC[C@H](NC(=O)c1cncn1C)C(=O)Nc1cccn(CC(=O)NC2C3CC4CC(C3)CC2C4)c1=O` (stereo partly drawn) [III-99, (S,E)-ethyl 7-(1-(2-(2-adamantylamino)-2-oxoethyl)-2-oxo-1,2-dihydropyridin-3-ylamino)-6-(1-methyl-1H-imidazole-5-carboxamido)-7-oxohept-2-enoate], in that order: 6.60 to 7.60, less than 1 ×10⁻⁶ cm/s and 3 to 5.
Regarding `Cn1cncc1C(=O)N[C@@H](CC/C=C/S(C)(=O)=O)C(=O)Nc1cccn(CC(=O)NC2C3CC4CC(C3)CC2C4)c1=O` (stereo partly drawn) [III-100, (S,E)-N-(1-(1-(2-(2-adamantylamino)-2-oxoethyl)-2-oxo-1,2-dihydropyridin-3-ylamino)-6-(methylsulfonyl)-1-oxohex-5-en-2-yl)-1-methyl-1H-imidazole-5-carboxamide], the pIC50 in data set [1] is 6.60 to 7.60. The molecule further gave a Papp in data set [2] of less than 1 ×10⁻⁶ cm/s. For the same molecule, the logD in data set [3] lay in the range of 1 to 3.
In the same order, the values of `COC(=O)/C=C/CC[C@H](NC(=O)c1cn[nH]n1)C(=O)Nc1cccn(CC(=O)NC2C3CC4CC(C3)CC2C4)c1=O` (stereo partly drawn) [III-101, (S,E)-methyl 7-(1-(2-(2-adamantylamino)-2-oxoethyl)-2-oxo-1,2-dihydropyridin-3-ylamino)-7-oxo-6-(2H-1,2,3-triazole-4-carboxamido)hept-2-enoate] are 6.60 to 7.60, less than 1 ×10⁻⁶ cm/s and 1 to 3.
Consider `COC(=O)/C=C/CC[C@H](NC(=O)c1cn(C)nn1)C(=O)Nc1cccn(CC(=O)NC2C3CC4CC(C3)CC2C4)c1=O` (stereo partly drawn) [III-103, (S,E)-methyl 7-(1-(2-(2-adamantylamino)-2-oxoethyl)-2-oxo-1,2-dihydropyridin-3-ylamino)-6-(1-methyl-1H-1,2,3-triazole-4-carboxamido)-7-oxohept-2-enoate], for which the pIC50 in data set [1] is 6.60 to 7.60. In data set [2], the Papp was 1 to 10 ×10⁻⁶ cm/s. In addition, the logD in data set [3] was 1 to 3.
In the same order, the values of `COC(=O)/C=C/CC[C@H](NC(=O)c1nc[nH]n1)C(=O)Nc1cccn(CC(=O)NC2C3CC4CC(C3)CC2C4)c1=O` (stereo partly drawn) [III-104, (S,E)-methyl 7-(1-(2-(2-adamantylamino)-2-oxoethyl)-2-oxo-1,2-dihydropyridin-3-ylamino)-7-oxo-6-(1H-1,2,4-triazole-3-carboxamido)hept-2-enoate] are 6.60 to 7.60, less than 1 ×10⁻⁶ cm/s and 1 to 3.
In the case of `COC(=O)/C=C/CC[C@H](NC(=O)c1ncn(C)n1)C(=O)Nc1cccn(CC(=O)NC2C3CC4CC(C3)CC2C4)c1=O` (stereo partly drawn) [III-105, (S,E)-methyl 7-(1-(2-(2-adamantylamino)-2-oxoethyl)-2-oxo-1,2-dihydropyridin-3-ylamino)-6-(1-methyl-1H-1,2,4-triazole-3-carboxamido)-7-oxohept-2-enoate], in data set [1], the negative logarithm of the IC50 (pIC50) was 6.60 to 7.60. Also, in data set [2], the Papp lay within 1 to 10 ×10⁻⁶ cm/s. This molecule had a logD in data set [3] of 1 to 3.
In the same order, the values of `COC(=O)/C=C/CC[C@H](NC(=O)c1coc2ccccc12)C(=O)Nc1cccn(CC(=O)NC2C3CC4CC(C3)CC2C4)c1=O` (stereo partly drawn) [III-106, (S,E)-methyl 6-(benzofuran-3-carboxamido)-7-(1-(2-(2-adamantylamino)-2-oxoethyl)-2-oxo-1,2-dihydropyridin-3-ylamino)-7-oxohept-2-enoate] are 6.60 to 7.60, 1 to 10 ×10⁻⁶ cm/s and 3 to 5.
In the same order, the values of `COC(=O)/C=C/CC[C@H](NC(=O)c1csc2ccccc12)C(=O)Nc1cccn(CC(=O)NC2C3CC4CC(C3)CC2C4)c1=O` (stereo partly drawn) [III-107, (S,E)-methyl 6-(benzo[b]thiophene-3-carboxamido)-7-(1-(2-(2-adamantylamino)-2-oxoethyl)-2-oxo-1,2-dihydropyridin-3-ylamino)-7-oxohept-2-enoate] are 6.60 to 7.60, 1 to 10 ×10⁻⁶ cm/s and 3 to 5.
For `COC(=O)/C=C/CC[C@H](NC(=O)c1snnc1C)C(=O)Nc1cccn(CC(=O)NC23CC4(C)CC(C)(CC(C)(C4)C2)C3)c1=O` [III-108, (S,E)-methyl 7-(1-(2-(3,5,7-trimethyl-1-adamantylamino)-2-oxoethyl)-2-oxo-1,2-dihydropyridin-3-ylamino)-6-(4-methyl-1,2,3-thiadiazole-5-carboxamido)-7-oxohept-2-enoate], in that order: greater than 7.60, less than 1 ×10⁻⁶ cm/s and 3 to 5.
